pIC50: −log10 of the molar value. Read-outs that look alike come from different tables or passages of the source.
Tests used:
CDK4/cyclin D3 = target: T1, CDK4/cyclin D3 (Homo sapiens, UniProt P11802); test: Human CDK4/cyclin D3 inhibitory activity (QS S Assist CDK4/Cyclin D3_FP Kit, IMAP fluorescence polarization); format: biochemical
T1 construct: purchased Carna Biosciences, Inc. QS S Assist CDK4/Cyclin D3_FP Kit
Method in brief: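 IMAP fluorescence polarization kit: CDK4/cyclin D3 at 12.5-25 ng/well with kit ATP/substrate/metal mix in 20 mM HEPES pH 7.4, 0.01% Tween20, 2 mM DTT, 45 min at room temperature. FP read at 485/535 nm after 30 min binding; IC50 from dose-response fit of percent inhibition versus enzyme and no-enzyme controls.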

CDK2/cyclin A2 = target: T2, CDK2/cyclin A2 (Homo sapiens, UniProt P24941); test: Human CDK2/cyclin A2 inhibitory activity (QS S Assist CDK2/Cyclin A2_FP Kit, IMAP fluorescence polarization); format: biochemical
T2 construct: purchased Carna Biosciences, Inc. QS S Assist CDK2/Cyclin A2_FP Kit
Method in brief: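 Kinase activity read as fluorescence polarization (485/535 nm) after phosphorylated fluorescent substrate binds IMAP reagent (30 min, RT, dark). Enzyme (2.5 ng/well) reacted 60 min at RT with ATP/substrate/metal in HEPES pH 7.4 buffer with Tween 20 and DTT; no-enzyme wells define 0% activity; IC50 by curve fit.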

[1] = Human CDK4/cyclin D3 inhibitory activity, read-out: CDK4 Activity symbol
[2] = Human CDK2/cyclin A2 inhibitory activity, read-out: CDK2 Activity symbol
[3] = 50% inhibitory concentration against CDK4/cyclin D3, given as class symbol
[4] = 50% inhibitory concentration against CDK2/cyclin A2, given as class symbol

T1 sequence (P11802 whole entry): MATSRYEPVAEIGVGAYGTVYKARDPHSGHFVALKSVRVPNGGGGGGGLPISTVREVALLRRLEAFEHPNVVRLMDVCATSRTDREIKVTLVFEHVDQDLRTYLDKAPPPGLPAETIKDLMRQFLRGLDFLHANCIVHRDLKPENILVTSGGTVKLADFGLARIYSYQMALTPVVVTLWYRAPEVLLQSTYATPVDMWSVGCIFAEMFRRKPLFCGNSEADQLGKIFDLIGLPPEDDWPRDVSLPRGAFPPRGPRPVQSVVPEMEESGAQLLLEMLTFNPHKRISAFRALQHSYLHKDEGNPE
T1 sequence (P30281 whole entry partner): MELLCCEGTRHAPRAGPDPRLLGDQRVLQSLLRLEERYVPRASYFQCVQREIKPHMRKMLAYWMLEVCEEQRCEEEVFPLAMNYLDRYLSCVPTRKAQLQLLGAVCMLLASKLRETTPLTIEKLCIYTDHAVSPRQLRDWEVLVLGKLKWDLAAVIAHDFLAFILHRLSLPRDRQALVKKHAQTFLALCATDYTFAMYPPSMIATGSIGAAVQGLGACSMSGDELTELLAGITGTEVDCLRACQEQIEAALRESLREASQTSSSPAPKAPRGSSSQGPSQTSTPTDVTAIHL

| Structure (SMILES) | pIC50 (CDK4/cyclin D3; [1]) | pIC50 (CDK2/cyclin A2; [2]) | pIC50 (CDK4/cyclin D3; [3]) | pIC50 (CDK2/cyclin A2; [4]) |
| --- | --- | --- | --- | --- |
| CC(C)Nc1nc([C@@H](C)O)cc2cnc(Nc3ccc(CN4CCOCC4)cn3)nc12 [Compound 233] | > 8.00 | ≤ 7.00 | – | – |
| CC(C)Nc1nc([C@@H](C)O)cc2cnc(Nc3ccc(CN4CCNC(=O)C4)cn3)nc12 [Compound 234] | > 8.00 | ≤ 7.00 | – | – |
| C[C@@H](O)c1cc2cnc(Nc3ccc(OCC4CNC4)cn3)nc2c(N[C@H]2CCCOC2)n1 [Compound 800] | – | – | > 8.00 | ≤ 7.00 |
| CC(C)Nc1nc(C(F)F)cc2cnc(Nc3ccc(NC(N)=O)cn3)nc12 [Compound 85] | 7.00 to 8.00 | 7.00 to 8.00 | – | – |
| CC(O)CN1CCN(Cc2ccc(Nc3ncc4cc([C@@H](C)O)nc(NC(C)C)c4n3)nc2)CC1 (stereo partly drawn) [Compound 638] | – | – | > 8.00 | ≤ 7.00 |
| CO[C@H](C)c1cc2cnc(Nc3ccc(N4CCN(C(C)C(=O)O)CC4=O)cn3)nc2c(NC(C)C)n1 (stereo partly drawn) [Compound 897] | – | – | 7.00 to 8.00 | ≤ 7.00 |
| CCCNc1nc(C(F)F)cc2cnc(Nc3ccc(N4CCNCC4=O)cn3)nc12 [Compound 821] | – | – | > 8.00 | 7.00 to 8.00 |
| CCC(O)c1cc2cnc(Nc3ccc(N4CCNCC4)cn3)nc2c(NC(C)C)n1 (stereo not drawn) [Compound 1034] | – | – | > 8.00 | ≤ 7.00 |
| CC(C)Nc1nc([C@@H](C)O)cc2cnc(Nc3ccc(CC(=O)N4CCNCC4)cn3)nc12 [Compound 519] | > 8.00 | ≤ 7.00 | – | – |
| CC(C)Nc1nc(C(F)F)cc2cnc(Nc3ccc(-c4ccncc4)cn3)nc12 [Compound 100] | 7.00 to 8.00 | ≤ 7.00 | – | – |
| CO[C@H](C)c1cc2cnc(Nc3ccc(N4CCNCC4)nn3)nc2c(NC2CCCC2)n1 [Compound 712] | – | – | > 8.00 | ≤ 7.00 |
| CC(C)Nc1nc([C@@H](C)O)cc2cnc(Nc3ccc(N4CCNC(C(C)C)C4=O)cn3)nc12 (stereo partly drawn) [Compound 732] | – | – | > 8.00 | ≤ 7.00 |
| CC(C)Nc1nc([C@@H](C)O)cc2cnc(Nc3ccc(N4CC5(CNC5)C4)nn3)nc12 [Compound 562] | > 8.00 | ≤ 7.00 | – | – |
| CC(C)Nc1nc(C(F)F)cc2cnc(Nc3ccc(CN4CCC(C(=O)O)CC4)cn3)nc12 [Compound 129] | > 8.00 | 7.00 to 8.00 | – | – |
| CNC(=O)CN1CCN(c2ccc(Nc3ncc4cc([C@@H](C)O)nc(NC(C)C)c4n3)nc2)C(=O)C1 [Compound 961] | – | – | > 8.00 | ≤ 7.00 |
| CC(C)Nc1nc(C(C)O)cc2cnc(Nc3ccc(N4CCN(C(C)CO)CCC4=O)cn3)nc12 (single isomer, unassigned) [Compound 809] | – | – | > 8.00 | 7.00 to 8.00 |
| CC(=O)N1CCN(Cc2ccc(Nc3ncc4cc(C(F)F)nc(NC(C)C)c4n3)nc2)CC1 [Compound 117] | > 8.00 | ≤ 7.00 | – | – |
| CO[C@H](C)c1cc2cnc(Nc3ccc4c(n3)CCN(C(=O)CO)C4)nc2c(N[C@H]2CCCOC2)n1 [Compound 1113] | – | – | 7.00 to 8.00 | ≤ 7.00 |

| Structure (SMILES) | pIC50 (CDK4/cyclin D3; [1]) | pIC50 (CDK2/cyclin A2; [2]) | pIC50 (CDK4/cyclin D3; [3]) | pIC50 (CDK2/cyclin A2; [4]) |
| --- | --- | --- | --- | --- |
| CC(C)Nc1nc(C(F)F)cc2cnc(Nc3ccc(CNC(N)=O)cn3)nc12 [Compound 138] | > 8.00 | 7.00 to 8.00 | – | – |
| CC(C)Nc1nc([C@@H](C)O)c(Cl)c2cnc(Nc3ccc(N4CCN(CCO)CCC4=O)cn3)nc12 [Compound 841] | – | – | > 8.00 | ≤ 7.00 |
| CC(C)Nc1nc(C2CCCO2)cc2cnc(Nc3ccc(N4CCNCC4)nn3)nc12 (single isomer, unassigned) [Compound 714] | – | – | ≤ 7.00 | ≤ 7.00 |
| CC(C)Nc1nc(C(F)F)cc2cnc(Nc3ccc(CN4CCN(S(C)(=O)=O)CC4)cn3)nc12 [Compound 115] | > 8.00 | ≤ 7.00 | – | – |
| CC(C)Nc1nc([C@@H](C)O)c(F)c2cnc(Nc3ccc(N4CCNCC4)cn3)nc12 [Compound 64] | > 8.00 | ≤ 7.00 | – | – |
| CC(C)Nc1nc([C@@H](C)O)cc2cnc(Nc3ccc(N4CCCC(C(=O)O)C4)cn3)nc12 (stereo partly drawn) [Compound 835] | – | – | 7.00 to 8.00 | ≤ 7.00 |
| C[C@@H](O)c1cc2cnc(Nc3ccc4c(n3)CCN(C(=O)CO)C4)nc2c(N[C@H]2CC[C@H](C)CC2)n1 [Compound 652] | – | – | > 8.00 | ≤ 7.00 |
| C[C@@H](O)c1cc2cnc(Nc3ccc(CN4CCC(O)CC4)cn3)nc2c(NC2CCC2)n1 [Compound 1063] | – | – | > 8.00 | ≤ 7.00 |
| CC(C)Nc1nc([C@@H](C)O)cc2cnc(Nc3ccc(N4CCC5(CCNCC5)C4=O)cn3)nc12 [Compound 784] | – | – | > 8.00 | ≤ 7.00 |
| CC(C)Nc1nc(C(C)O)cc2cnc(Nc3ccc(N4CCC(CCCO)CC4)cn3)nc12 (stereo not drawn) [Compound 75] | > 8.00 | ≤ 7.00 | – | – |
| CCNc1nc([C@@H](C)O)cc2cnc(Nc3ccc4c(n3)CCN(CCN(C)C)C4)nc12 [Compound 1139] | – | – | > 8.00 | ≤ 7.00 |
| CO[C@H](C)c1cc2cnc(Nc3ccc(N4CCNCC4)c(C)n3)nc2c(NC(C)C)n1 [Compound 925] | – | – | > 8.00 | ≤ 7.00 |
| COC1CCN(c2ccc(Nc3ncc4cc([C@@H](C)O)nc(N[C@H]5CCCOC5)c4n3)nn2)CC1 [Compound 762] | – | – | > 8.00 | ≤ 7.00 |
| CCCNc1nc([C@@H](C)O)cc2cnc(Nc3ccc4c(n3)CCN(CCN(C)C)C4)nc12 [Compound 1138] | – | – | > 8.00 | ≤ 7.00 |
| CNC(=O)CN1CCN(c2ccc(Nc3ncc4cc([C@@H](C)O)nc(NC(C)C)c4n3)nn2)CC1 [Compound 960] | – | – | > 8.00 | ≤ 7.00 |
| CC(C)Nc1nc([C@@H](C)O)cc2cnc(Nc3ccc(CN4CCNCC4)nn3)nc12 [Compound 1225] | – | – | > 8.00 | ≤ 7.00 |
| CC(C)Nc1nc(C(C)O)cc2cnc(Nc3ccc(N4CCN(C)CC4)cn3)nc12 (stereo not drawn) [Compound 71] | > 8.00 | ≤ 7.00 | – | – |
| CCNc1nc([C@@H](C)O)cc2cnc(Nc3ccc(CN4CCN(C(C)CO)CC4)cn3)nc12 (single isomer, unassigned) [Compound 1088] | – | – | > 8.00 | ≤ 7.00 |

Other lines, results leading:

| pIC50 (CDK4/cyclin D3; [1]) | pIC50 (CDK2/cyclin A2; [2]) | pIC50 (CDK4/cyclin D3; [3]) | pIC50 (CDK2/cyclin A2; [4]) | Structure (SMILES) |
| --- | --- | --- | --- | --- |
| – | – | > 8.00 | ≤ 7.00 | CCCNc1nc([C@@H](C)O)cc2cnc(Nc3ccc(N4CCC(N(C)C)CC4)nn3)nc12 [Compound 1159] |
| > 8.00 | ≤ 7.00 | – | – | C[C@@H](O)c1cc2cnc(Nc3ccc(N4CCNCC4)nn3)nc2c(NCC2CCOC2)n1 (stereo partly drawn) [Compound 284] |
| > 8.00 | 7.00 to 8.00 | – | – | CC(C)Nc1nc(C(F)F)cc2cnc(Nc3ccc(CN4CCNC(C)(C)C4)cn3)nc12 [Compound 174] |
| – | – | 7.00 to 8.00 | ≤ 7.00 | CCNc1nc([C@@H](C)O)cc2cnc(Nc3cc(C)c(CN4CCN(CCO)CC4)cn3)nc12 [Compound 1053] |
| – | – | > 8.00 | ≤ 7.00 | CC(C)CNc1nc([C@@H](C)O)cc2cnc(Nc3ccc(CN4CCN(CCO)CC4)cn3)nc12 [Compound 846] |
| > 8.00 | ≤ 7.00 | – | – | CC(=O)c1cc2cnc(Nc3ccc(N4CCNCC4)cn3)nc2c(NC(C)(C)C)n1 [Compound 59] |
| > 8.00 | ≤ 7.00 | – | – | CO[C@H](C)c1cc2cnc(Nc3ccc(N4CCN(CCO)CC4)nn3)nc2c(NC(C)C)n1 [Compound 249] |
| > 8.00 | ≤ 7.00 | – | – | C[C@@H](O)c1nc(N[C@H]2CCCOC2)c2nc(Nc3ccc(N4CCNCC4)nn3)ncc2c1Cl [Compound 367] |
| > 8.00 | 7.00 to 8.00 | – | – | CC(C)Nc1nc(C(F)F)cc2cnc(Nc3ccc(CCCN4CCOCC4=O)cn3)nc12 [Compound 168] |
| > 8.00 | ≤ 7.00 | – | – | CO[C@H](C)c1cc2cnc(Nc3ccc(N4CCCCC(N)C4=O)cn3)nc2c(NC(C)C)n1 (stereo partly drawn) [Compound 553] |
| – | – | 7.00 to 8.00 | ≤ 7.00 | CC(C)Nc1nc(C(C)O)cc2cnc(Nc3ccc(OC4CCC(C(=O)O)CC4)cn3)nc12 (single isomer, unassigned) [Compound 831] |
| > 8.00 | ≤ 7.00 | – | – | CO[C@H](C)c1cc2cnc(Nc3ccc(OCCN(C)C)cn3)nc2c(NC(C)C)n1 [Compound 227] |
| – | – | > 8.00 | ≤ 7.00 | CO[C@H](C)c1cc2cnc(Nc3ccc(N4CCNCC4)nn3)nc2c(SC(C)C)n1 [Compound 728] |
| – | – | > 8.00 | ≤ 7.00 | C[C@@H](O)c1cc2cnc(Nc3ccc(CN4CCC(CO)CC4)cn3)nc2c(NCC2CCOCC2)n1 [Compound 1152] |
| – | – | > 8.00 | ≤ 7.00 | CN(C)CCOC(=O)N1CCc2nc(Nc3ncc4cc(C5(C)COC5)nc(N[C@H]5CCCOC5)c4n3)ccc2C1 [Compound 1137] |
| – | – | > 8.00 | ≤ 7.00 | CC(C)Nc1nc([C@@H](C)O)cc2cnc(Nc3ccc(N4CCCC5(CCCN5)C4=O)cn3)nc12 (stereo partly drawn) [Compound 630] |
| – | – | > 8.00 | ≤ 7.00 | CC(C)Nc1nc([C@@H](C)O)cc2cnc(Nc3ccc(N4CC[C@@H](O)C4)nn3)nc12 [Compound 661] |
| – | – | > 8.00 | ≤ 7.00 | CN(C)CCN1CCc2nc(Nc3ncc4cc(C5CCOC5)nc(N[C@H]5CC[C@H](O)CC5)c4n3)ccc2C1 (stereo partly drawn) [Compound 1181] |
| – | – | > 8.00 | 7.00 to 8.00 | CC(C)Nc1nc([C@@H](C)O)cc2cnc(Nc3ccc(N4CCN(C(C)C)CCC4=O)cn3)nc12 [Compound 631] |
| – | – | > 8.00 | ≤ 7.00 | C[C@@H](O)c1cc2cnc(Nc3ccc(CN4CCN(C)CC4)cn3)nc2c(NC(C)(C)CO)n1 [Compound 1106] |
| – | – | > 8.00 | ≤ 7.00 | CC(C)Nc1nc([C@@H](C)O)cc2cnc(Nc3ccc(CN4CCC(O)C4)cn3)nc12 (stereo partly drawn) [Compound 1041] |
